Test results reported in patent US11352350B2, “IRAK degraders and uses thereof” (Kymera Therapeutics, Inc., priority 2018, dated 2022).
pIC50: −log10 of the molar value. Read-outs that look alike come from different tables or passages of the source.

Key:
IRAK4 = IRAK4 (Homo sapiens (Human), UniProt Q9NWZ3); assay: IRAK4 MSD degradation in OCI-LY10; assay type: cell-based
In short: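 Remaining IRAK4 quantified by electrochemiluminescent MSD sandwich assay with two anti-IRAK4 antibodies. Compounds were dosed as 8 concentrations in 1:3 steps from a 1 to 10 μM final top on OCI-LY10 cells, incubated 4 to 24 h at 37° C. under 5% CO2. DC50 fitted with a three-parameter logistic curve.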

OCI-LY10 = assay: CTG Cell Viability Assay - OCI-LY10; assay type: cell-based, human; details: Homo sapiens, OCI-Ly10, 96 h, OCI-LY10, 4 days; read-out: CTG Cell Viability Assay - OCI-LY10: Average external-IC50
In short: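 Viability read by CellTiter-Glo luminescence after 4 days at 37° C under 5% CO2 with compound (top 10 μM final, 1:3 steps, 9 doses, DMSO 0.2%). Three-parameter logistic fit gave IC50.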

[1] = OCI-LY10, 4 hrs, MSD, read-out: IRAK4 MSD degradation in OCI-LY10 at 4 hrs: Average external-Abs DC50
[2] = OCI-LY10, 24 hrs, MSD, read-out: IRAK4 MSD degradation in OCI-LY10 at 24 hrs: Average external-Abs DC50
[3] = OCI-LY10, 4 hrs, read-out: IRAK4 MSD degradation in OCI-LY10 at 4 hrs: DC50
[4] = OCI-LY10, 24 hrs, read-out: IRAK4 MSD degradation in OCI-LY10 at 24 hrs: DC50

Chain of IRAK4 (Q9NWZ3 whole entry): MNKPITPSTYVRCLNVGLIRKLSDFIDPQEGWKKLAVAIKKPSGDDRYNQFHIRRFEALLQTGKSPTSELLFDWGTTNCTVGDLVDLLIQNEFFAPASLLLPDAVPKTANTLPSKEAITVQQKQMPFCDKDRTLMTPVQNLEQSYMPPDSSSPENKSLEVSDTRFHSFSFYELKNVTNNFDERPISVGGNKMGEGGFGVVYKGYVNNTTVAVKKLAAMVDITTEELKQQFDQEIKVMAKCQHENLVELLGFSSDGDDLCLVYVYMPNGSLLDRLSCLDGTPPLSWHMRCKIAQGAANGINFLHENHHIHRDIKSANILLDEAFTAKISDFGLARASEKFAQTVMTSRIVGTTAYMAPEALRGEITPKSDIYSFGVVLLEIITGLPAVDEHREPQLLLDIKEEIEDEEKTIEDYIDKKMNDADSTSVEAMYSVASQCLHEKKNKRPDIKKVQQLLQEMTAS

Row | Compound | DC50 (IRAK4; [1]) | pIC50 (OCI-LY10) | DC50 (IRAK4; [2]) | DC50 (IRAK4; [3]) | DC50 (IRAK4; [4])
1 | CC[C@@H]1[C@H](F)C(=O)N[C@@H]1COc1ccc(C#C[C@H]2CC[C@H](CN3CCC4(CC3)CC(CNc3cccc5c3C(=O)N(C3CCC(=O)NC3=O)C5=O)C4)CC2)c2cc(C(N)=O)c(OC)cc12 (stereo partly drawn) [I-372] | > 1000 nM | > 7.30 | – | – | –
2 | CN[C@@H](C)C(=O)N[C@H](C(=O)N1Cc2cc(OCCOCCOCCNC[C@H]3CC[C@H](n4cc(NC(=O)c5coc(-c6ccnc(NCC7CC7)c6)n5)c(C(F)F)n4)CC3)ccc2C[C@H]1C(=O)N[C@@H]1CCCc2ccccc21)C(C)(C)C [I-161] | > 1000 nM | < 6.00 | > 1000 nM | – | –
3 | CN(C[C@H]1CC[C@H](n2cc(NC(=O)c3cnn4ccc(N5CCOCC5)nc34)c(C(F)F)n2)CC1)C1CCN(CCc2cccc3c2n(C)c(=O)n3C2CCC(=O)NC2=O)CC1 (stereo partly drawn) [I-404] | < 10 nM | > 7.30 | – | – | –
4 | Cn1c(=O)n(C2CCC(=O)NC2=O)c2ccc(CCCOC3CCN(C[C@H]4CC[C@H](n5cc(NC(=O)c6cnn7ccc(N8CCNCC8)nc67)c(C(F)F)n5)CC4)CC3)cc21 (stereo partly drawn) [I-162] | < 10 nM | < 6.00 | – | – | –
5 | CN(CCCNc1cccc2c1C(=O)N(C1CCC(=O)NC1=O)C2=O)C1CCN(C(=O)[C@H]2CC[C@H](n3cc(NC(=O)c4cnn5ccc(C6C[C@H]7C[C@@H]6CO7)nc45)c(C(F)F)n3)CC2)CC1 (stereo partly drawn) [I-358] | > 1000 nM | 7.00 to 7.30 | 10 to 100 nM | – | –
6 | Cn1c(=O)n(C2CCC(=O)NC2=O)c2ccc(CN3CCC(CN4CCC(n5cc(NC(=O)c6coc(-c7ccnc(NCC8CC8)c7)n6)c(C(F)F)n5)CC4)CC3)cc21 (stereo not drawn) [I-182] | 100 to 1000 nM | < 6.00 | – | – | –
7 | CN(Cc1ccc(-n2cc(NC(=O)c3coc(-c4ccnc(NCC5CC5)c4)n3)c(C(F)F)n2)cc1)C1CCN(Cc2cccc3c2n(C)c(=O)n3C2CCC(=O)NC2=O)CC1 (stereo not drawn) [I-389] | 10 to 100 nM | > 7.30 | 10 to 100 nM | – | –
8 | O=C1CCC(n2c3ccccc3c3c(CCCOC4CCN(C[C@H]5CC[C@H](n6cc(NC(=O)c7cnn8ccc(N9CCOCC9)nc78)c(C(F)F)n6)CC5)CC4)ccnc32)C(=O)N1 (stereo partly drawn) [I-192] | 10 to 100 nM | < 6.00 | – | – | –
9 | Cn1c(=N)n(C2CCC(=O)NC2=O)c2ccc(CCCOCCCN3CCC(n4cc(NC(=O)c5cnn6ccc(N7CCOCC7)nc56)c(C(F)F)n4)CC3)cc21 (stereo not drawn) [I-179] | 100 to 1000 nM | < 6.00 | – | – | –
10 | O=C1CCC(N2Cc3c(NCCOCC4CCN(C[C@H]5CC[C@H](n6cc(NC(=O)c7cnn8ccc(N9C[C@H]%10C[C@@H]9CO%10)nc78)c(C(F)F)n6)CC5)CC4)cccc3C2=O)C(=O)N1 (stereo partly drawn) [I-374] | > 1000 nM | < 6.00 | 10 to 100 nM | – | –
11 | O=C1CCC(N2Cc3c(OCc4ccc(CN5CCN(C[C@H]6CC[C@H](n7cc(NC(=O)c8coc(-c9ccnc(NCC%10CC%10)c9)n8)c(C(F)F)n7)CC6)CC5)cc4)cccc3C2=O)C(=O)N1 (stereo partly drawn) [I-379] | > 1000 nM | 6.30 to 7.00 | > 1000 nM | – | –
12 | CN(CCc1ccc(CNc2cccc3c2C(=O)N(C2CCC(=O)N(C)C2=O)C3=O)cc1)C[C@H]1CC[C@H](n2cc(NC(=O)c3cnn4ccc(N5C[C@H]6CC5CO6)nc34)c(C(F)F)n2)CC1 (stereo partly drawn) [I-452] | – | < 6.00 | – | 100 to 1000 nM | > 1000 nM
13 | N#CCc1ccc2c(N[C@H]3CC[C@H](N4CCN(C(=O)COCCOCCOCCOCCNc5cccc6c5C(=O)N(C5CCC(=O)NC5=O)C6=O)CC4)CC3)ncnc2c1 (stereo partly drawn) [I-52] | > 1000 nM | 6.30 to 7.00 | – | – | –
14 | CN(CCC1CCN(c2cccc3c2C(=O)N(C2CCC(=O)NC2=O)C3=O)CC1)C[C@H]1CC[C@H](n2cc(NC(=O)C3CNN4C=CC(N5CCOCC5)=NC34)c(C(F)F)n2)CC1 (stereo partly drawn) [I-223] | 10 to 100 nM | < 6.00 | – | – | –
15 | CC[C@@H]1[C@H](F)C(=O)N[C@@H]1COc1ncc(C#CC2CCN(CCCOCCCc3cccc4c3n(C)c(=O)n4C3CCC(=O)NC3=O)CC2)c2cc(C(N)=O)c(OC)cc12 (stereo partly drawn) [I-204] | 100 to 1000 nM | < 6.00 | 10 to 100 nM | – | –
16 | CN(CCCCCCCNC(=O)c1ccc(CNCc2ccc(-c3ccc4c(cnn4CC4CC4)c3)cc2)cc1)C[C@H]1CC[C@H](n2cc(NC(=O)c3coc(-c4ccnc(NCC5CC5)c4)n3)c(C(F)F)n2)CC1 [I-135] | 100 to 1000 nM | < 6.00 | > 1000 nM | – | –
17 | CN(CCN1CCO[C@H](CCNc2cccc3c2C(=O)N(C2CCC(=O)NC2=O)C3=O)C1)C[C@H]1CC[C@H](n2cc(NC(=O)c3cnn4ccc(N5C[C@H]6C[C@@H]5CO6)nc34)c(C(F)F)n2)CC1 (stereo partly drawn) [I-340] | 100 to 1000 nM | 6.30 to 7.00 | 10 to 100 nM | – | –
18 | CN(CCCN(C)C[C@H]1CC[C@H](n2cc(NC(=O)c3coc(-c4ccnc(NCC5CC5)c4)n3)c(C(F)F)n2)CC1)Cc1cccc2c1n(C)c(=O)n2C1CCC(=O)NC1=O (stereo partly drawn) [I-242] | < 10 nM | 6.00 to 6.30 | – | – | –

Row | Compound | DC50 (IRAK4; [1]) | pIC50 (OCI-LY10) | DC50 (IRAK4; [2]) | DC50 (IRAK4; [3]) | DC50 (IRAK4; [4])
19 | CN1C(=O)CCC(N2C(=O)c3cccc(NCC4CC5(CCN(C[C@H]6CC[C@H](n7cc(NC(=O)c8cnn9ccc(N%10C[C@H]%11C[C@@H]%10CO%11)nc89)c(C(F)F)n7)CC6)CC5)C4)c3C2=O)C1=O (stereo partly drawn) [I-323] | 100 to 1000 nM | < 6.00 | > 1000 nM | – | –
20 | CN(CCCN1CCN(c2cccc3c2C(=O)N(C2CCC(=O)NC2=O)C3=O)CC1)C[C@H]1CC[C@H](n2cc(NC(=O)c3cnn4ccc(N5CCOCC5)nc34)c(C(F)F)n2)CC1 (stereo partly drawn) [I-225] | 10 to 100 nM | < 6.00 | – | – | –
21 | Cn1c(=O)n(C2CCC(=O)NC2=O)c2ccc(CCCOC3CCN(C[C@H]4CC[C@H](n5cc(NC(=O)c6coc(-c7ccnc(NCC8CC8)c7)n6)c(C(F)F)n5)CC4)CC3)cc21 (stereo partly drawn) [I-118] | < 10 nM | < 6.00 | – | – | –
22 | O=C1CCC(N2C(=O)c3cccc(NCC4CCN(Cc5ccc(-n6cc(NC(=O)c7cnn8ccc(N9C[C@H]%10C[C@@H]9CO%10)nc78)c(C(F)F)n6)cc5)CC4)c3C2=O)C(=O)N1 (stereo partly drawn) [I-489] | – | > 7.30 | – | 100 to 1000 nM | > 1000 nM
23 | CN(CC1CCC(n2cc(NC(=O)c3cnn4ccc(C5CCOCC5)nc34)c(C(F)F)n2)CC1)[C@H]1CC[C@H](Nc2cccc3c2C(=O)N(C2CCC(=O)NC2=O)C3=O)CC1 (stereo partly drawn) [I-478] | – | < 6.00 | – | 100 to 1000 nM | 10 to 100 nM
24 | O=C1CCC(N2C(=O)c3cccc(NCCCOC4CCN(C[C@H]5CC[C@H](n6cc(NC(=O)c7cnn8ccc(N9C%10COCC9C%10)nc78)c(C(F)F)n6)CC5)CC4)c3C2=O)C(=O)N1 (stereo partly drawn) [I-345] | 100 to 1000 nM | > 7.30 | 10 to 100 nM | – | –
25 | C[C@@H](CCNc1cccc2c1C(=O)N(C1CCC(=O)NC1=O)C2=O)OC1CCN(C[C@H]2CC[C@H](n3cc(NC(=O)c4cnn5ccc(N6C[C@H]7C[C@@H]6CO7)nc45)c(C(F)F)n3)CC2)CC1 (stereo partly drawn) [I-551] | – | > 7.30 | – | 100 to 1000 nM | –
26 | Cn1c(=O)n(C2CCC(=O)NC2=O)c2cccc(CCCOCCCOC3CCN(C4CCC(Nc5ncnc6ccc(C#N)cc56)CC4)CC3)c21 (stereo not drawn) [I-271] | > 1000 nM | < 6.00 | > 1000 nM | – | –
27 | CN(CCCOC1CCN(C[C@H]2CC[C@H](n3cc(NC(=O)c4cnn5ccc(N6CCOCC6)nc45)c(C(F)F)n3)CC2)CC1)c1cccc2c1C(=O)N(C1CCC(=O)NC1=O)C2=O (stereo partly drawn) [I-212] | 10 to 100 nM | < 6.00 | – | – | –
28 | CN(CCCOCCCc1cccc2c1C(=O)N(C1CCC(=O)NC1=O)C2=O)C[C@H]1CC[C@H](n2cc(NC(=O)c3coc(-c4ccnc(NCC5CC5)c4)n3)c(C(F)F)n2)CC1 (stereo partly drawn) [I-167] | 100 to 1000 nM | 6.30 to 7.00 | – | – | –
29 | O=C1CCC(N2C(=O)c3cccc(NCC4CC5(CCN(Cc6ccc(-n7cc(NC(=O)c8cnn9ccc(N%10C[C@H]%11C[C@@H]%10CO%11)nc89)c(C(F)F)n7)cc6)CC5)C4)c3C2=O)C(=O)N1 (stereo partly drawn) [I-462] | – | > 7.30 | – | 100 to 1000 nM | > 1000 nM
30 | O=C1CCC(N2C(=O)c3cccc(NCCC4CCN(C[C@H]5CC[C@H](n6cc(NC(=O)c7cnn8ccc(N9CCOCC9)nc78)c(C(F)F)n6)CC5)CC4)c3C2=O)C(=O)N1 (stereo partly drawn) [I-365] | 10 to 100 nM | > 7.30 | – | – | –
31 | CN1C(=O)C(C2CCC(=O)NC2=O)c2cccc(CCCOC3CCN(C[C@H]4CC[C@H](n5cc(NC(=O)c6cnn7ccc(N8CCC(C)(O)CC8)nc67)c(C(F)F)n5)CC4)CC3)c21 (stereo partly drawn) [I-286] | 10 to 100 nM | < 6.00 | – | – | –
32 | CN(CCCOCCCNc1cccc2c1C(=O)N(C1CCC(=O)NC1=O)C2=O)C[C@H]1CC[C@H](n2cc(NC(=O)c3cnn4ccc(NCC5CC5)nc34)c(C(F)F)n2)CC1 (stereo partly drawn) [I-437] | 10 to 100 nM | 6.30 to 7.00 | 10 to 100 nM | – | –
33 | O=C1CCC(N2C(=O)c3cccc(NCCc4ccc(CNC[C@H]5CC[C@H](n6cc(NC(=O)c7cnn8ccc(N9C[C@H]%10C[C@@H]9CO%10)nc78)c(C(F)F)n6)CC5)cc4)c3C2=O)C(=O)N1 (stereo partly drawn) [I-351, N-[3-(difluoromethyl)-1-[4-[[[4-[2-[[2-(2,6-dioxo-3-piperidyl)-1,3-dioxo-isoindolin-4-yl]amino]ethyl]phenyl]methylamino]methyl]cyclohexyl]pyrazol-4-yl]-5-[(1R,4R)-2-oxa-5-azabicyclo[2.2.1]heptan-5-yl]pyrazolo[1,5-a]pyrimidine-3-carboxamide] | > 1000 nM | < 6.00 | – | – | –
34 | CN(C[C@H]1CC[C@H](n2cc(NC(=O)c3cnn4ccc(NCCC(C)(C)O)nc34)c(C(F)F)n2)CC1)[C@H]1CC[C@H](Nc2cccc3c2C(=O)N(C2CCC(=O)NC2=O)C3=O)CC1 (stereo partly drawn) [I-502] | – | > 7.30 | – | < 10 nM | < 10 nM
35 | O=C1CCC(N2C(=O)c3cccc(NCCCOC4CCN(C[C@H]5CC[C@H](n6cc(NC(=O)c7cnn8ccc(N9CC%10(COC%10)C9)nc78)c(C(F)F)n6)CC5)CC4)c3C2=O)C(=O)N1 (stereo partly drawn) [I-364] | – | 7.00 to 7.30 | 10 to 100 nM | – | –
